{"source": "ChEMBL document CHEMBL4725419", "about": "“Complete Regression of Carcinoma via Combined C-RAF and EGFR Targeted Therapy” (2020)", "key": {"[1]": {"experiment": "Antiproliferative activity against EGFR/C-RAF knockdown human H-PDAC-M-X3 cells harboring K-RAS G12D/TP53 H179Y mutant xenografted in mouse tumor model assessed as inhibition of cell proliferation by MTT assay in presence of erlotinib", "assay_type": "functional"}, "[2]": {"experiment": "Antiproliferative activity against EGFR/C-RAF knockdown human Panc4 cells harboring K-RAS G12D/TP53 P72R/R28W mutant xenografted in mouse tumor model assessed as inhibition of cell proliferation by MTT assay in presence of erlotinib", "assay_type": "functional, Panc-4"}, "[3]": {"experiment": "Antiproliferative activity against EGFR/C-RAF knockdown human PDAC003T cells harboring K-RAS G12D/TP53 Q136P mutant xenografted in mouse tumor model assessed as inhibition of cell proliferation by MTT assay in presence of erlotinib", "assay_type": "functional"}, "[4]": {"experiment": "Antiproliferative activity against EGFR/C-RAF knockdown human PDAC013T cells harboring K-RAS G12D/TP53 I254T mutant xenografted in mouse tumor model assessed as inhibition of cell proliferation by MTT assay in presence of erlotinib", "assay_type": "functional"}, "[5]": {"tested_on": "PANC-1", "experiment": "Antiproliferative activity against EGFR/C-RAF knockdown human PANC-1 cells harboring K-RAS G12D/TP53 P72R/K129R mutant xenografted in mouse tumor model assessed as inhibition of cell proliferation by MTT assay in presence of erlotinib", "assay_type": "functional"}, "[6]": {"experiment": "Antiproliferative activity against EGFR/C-RAF knockdown human Panc198 cells harboring K-RAS G12D/TP53 D208V mutant xenografted in mouse tumor model assessed as inhibition of cell proliferation by MTT assay in presence of erlotinib", "assay_type": "functional"}}, "data": [{"smiles": "C#Cc1cccc(Nc2ncnc3cc(OCCOC)c(OCCOC)cc23)c1", "note": "[ERLOTINIB]", "values": [{"measurement": "INH", "setting": "[1]", "result": 24.5, "unit": "µM"}, {"measurement": "INH", "setting": "[2]", "result": 2.82, "unit": "µM"}, {"measurement": "INH", "setting": "[3]", "result": 11.7, "unit": "µM"}, {"measurement": "INH", "setting": "[4]", "result": 2.05, "unit": "µM"}, {"measurement": "INH", "setting": "[5]", "result": 6.1, "unit": "µM"}, {"measurement": "INH", "setting": "[6]", "result": 32.8, "unit": "µM"}]}]}
